From patent US20260193268A1, “TRICYCLIC PI3Ka INHIBITOR, PREPARATION METHOD THEREFOR, AND PHARMACEUTICAL USE THEREOF” (WIGEN BIOMEDICINE TECHNOLOGY (SHANGHAI) CO., LTD., priority 2022, published 2026)
Like-named read-outs stand apart in the source and are kept apart here.

What was measured:
[1] = test system: MCF-7 cells (with PI3Kα E545K mutation); experiment: In vitro inhibition of MCF-7 cell proliferation (CellTiter-Lumi); type: cell-based
Summary of the method: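 MCF-7 (PI3Kα E545K) seeded at 2000 cells/well; serially diluted compounds added next day and exposed for 144 h. Cellular ATP read by CellTiter-Lumi luminescence; IC50 for growth inhibition calculated.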

[2] = test system: HCC1954 cells (with PI3Kα H1047R mutation); experiment: In vitro inhibition of HCC1954 cell proliferation (CellTiter-Lumi); type: cell-based
Description: Assay for In Vitro Inhibition of HCC1954 Cell Proliferation by Compounds of the Present Disclosure
The growth of the cells was evaluated, and the IC50 for the inhibition of cell growth by the compounds was calculated.

[3] = Homo sapiens, MCF7, 144 h, numeric values, read-out: Inhibitory activity against MCF-7 cells (IC50)
[4] = Homo sapiens, HCC1954, 144 h, HCC1954 cells, 144 h, CellTiter-Lumi, numeric values, read-out: Inhibitory activity against HCC1954 cells (IC50)
[5] = Homo sapiens, MCF7, 144 h, class symbols, read-out: Inhibitory activity against MCF-7 cells (IC50), class symbols
[6] = Homo sapiens, HCC1954, 144 h, HCC1954 cells, 144 h, CellTiter-Lumi, class symbols, read-out: Inhibitory activity against HCC1954 cells (IC50), class symbols

Row | SMILES | IC50 [1, 3] [µM] | IC50 [2, 4] [µM] | IC50 [1, 5] [µM] | IC50 [2, 6] [µM] | also measured
1 | N#CC(=CC1CC1)C(=O)Nc1ccc(N2CC(N3CCN(c4ccc5c(c4)-c4nc(N6C(=O)OC[C@H]6C(F)F)cn4CCO5)CC3)C2)nc1 [Compound 245] | – | – | < 0.05 | < 0.05 | –
2 | CC(C)=CC(=O)CCCCC(=O)N1CC(N2CCN(c3ccc4c(c3)-c3nc(N5C(=O)OC[C@H]5C(F)F)cn3CCO4)CC2)C1 [Compound 157] | 0.024 | 0.228 | – | – | –
3 | C=CC(=O)N1CCC(N2CCC(CN3CCN(c4ccc5c(c4)-c4nc(N6C(=O)OC[C@H]6C(F)F)cn4CCO5)CC3)CC2)CC1 [Compound 8] | 0.063 | > 1 | – | – | –
4 | CCOP(=O)(NC(C)(C)C=C(C#N)C(=O)Nc1ccc(N2CC(N3CCN(c4ccc5c(c4)-c4nc(N6C(=O)OC[C@H]6C(F)F)cn4CCO5)CC3)C2)cc1)OCC [Compound 332] | – | – | < 0.05 | – | IC50 ([2]; Homo sapiens, HCC1954, 144 h, read-out: Inhibitory activity against HCC1954 cells (IC50), class symbols): < 0.05 µM
5 | C=CC(=O)Nc1ccc(N2CCN(CC#Cc3ccc4c(c3)-c3nc(N5C(=O)OC[C@H]5C(F)F)cn3CCO4)CC2)cc1 [Compound 182] | – | – | 0.05 to 0.1 | 0.05 to 0.1 | –
6 | CC(C)(C=C(C#N)C(=O)Nc1ccc(N2CC(N3CCN(c4ccc5c(c4)-c4nc(N6C(=O)OC[C@H]6C(F)F)cn4CCO5)CC3)C2)cc1)N1CCOCC1 [Compound 138] | 0.035 | 0.109 | – | – | –
7 | CC(C)(C=C(C#N)C(=O)Nc1ccc(N2CC(N3CCN(c4ccc5c(c4)-c4nc(N6C(=O)OC[C@H]6C(F)F)cn4CCO5)CC3)C2)cc1)N1CCC2(CC1)COC2 [Compound 312] | – | – | < 0.05 | < 0.05 | –
8 | CC(C)C=C(C#N)C(=O)Nc1ccc(N2CC(N3CCN(c4ccc5c(c4)-c4nc(N6C(=O)OC[C@H]6C(F)F)cn4CCO5)CC3)C2)c(F)c1 [Compound 226] | – | – | < 0.05 | < 0.05 | –
9 | C=CC(=O)N1CC(N2CC(CN3CCN(c4ccc5c(c4)-c4nc(N6C(=O)OC[C@H]6C(F)F)cn4CCO5)CC3)C2)C1 [Compound 60] | 0.013 | 0.174 | – | – | –
10 | C=CC(=O)Nc1cc(C)c(N2CC(N3CCN(c4ccc5c(c4)-c4nc(N6C(=O)OC[C@H]6C(F)F)cn4CCO5)CC3)C2)cn1 [Compound 140] | 0.0003 | 0.006 | – | – | –
11 | CC1CN(C(C)(C)C=C(C#N)C(=O)Nc2ccc(N3CC(N4CCN(c5ccc6c(c5)-c5nc(N7C(=O)OC[C@H]7C(F)F)cn5CCO6)CC4)C3)cc2)CC(C)N1 (stereo partly drawn) [Compound 309] | – | – | < 0.05 | < 0.05 | –
12 | C=CC(=O)N1CCC(N2CCC(N3CCN(c4ccc5c(c4)-c4nc(N6C(=O)OC[C@H]6C(F)F)cn4CCO5)CC3)C2)CC1 (stereo partly drawn) [Compound 89] | 0.041 | 0.23 | – | – | –
13 | COC(=O)N1CCN(C(C)(C)C=C(C#N)C(=O)Nc2ccc(N3CC(N4CCN(c5ccc6c(c5)-c5nc(N7C(=O)OC[C@H]7C(F)F)cn5CCO6)CC4)C3)cc2)CC1 [Compound 311] | – | – | < 0.05 | < 0.05 | –
14 | C=CC(=O)Nc1ccc(N2CC(N3CCN(c4ccc5c(c4)-c4nc(N6C(=O)OC[C@H]6C(F)F)cn4CCO5)CC3)C2)cc1C [Compound 139] | 0.0006 | 0.0067 | – | – | –
15 | CC(C)(C=C(C#N)C(=O)Nc1ccc(N2CC(N3CCN(c4ccc5c(c4)-c4nc(N6C(=O)OC[C@H]6C(F)F)cn4CCO5)CC3)C2)cc1)NCC1COC1 [Compound 381] | – | – | < 0.05 | < 0.05 | –
16 | CC1(C=C(C#N)C(=O)Nc2ccc(N3CC(N4CCN(c5ccc6c(c5)-c5nc(N7C(=O)OC[C@H]7C(F)F)cn5CCO6)CC4)C3)nc2)COC1 [Compound 251] | – | – | < 0.05 | < 0.05 | –
17 | CNCC#CC(=O)Nc1ccc(N2CC(N3CCN(c4ccc5c(c4)-c4nc(N6C(=O)OC[C@H]6C(F)F)cn4CCO5)CC3)C2)cc1 [Compound 185] | – | – | < 0.05 | < 0.05 | –
18 | C=CC(=O)N1CCn2nc(N3CC(N4CCN(c5ccc6c(c5)-c5nc(N7C(=O)OC[C@H]7C(F)F)cn5CCO6)CC4)C3)cc2C1 [Compound 164] | 0.003 | 0.053 | – | – | –
19 | CNc1cc2c(cc1N1CCN(C3CN(c4ccc(NC(=O)C(C#N)=CC(C)(C)C)cc4)C3)CC1)-c1nc(N3C(=O)OC[C@H]3C(F)F)cn1CCO2 [Compound 319] | – | – | < 0.05 | < 0.05 | –
20 | CN(C)C/C=C/C(=O)Nc1cnc(N2CC(N3CCN(c4ccc5c(c4)-c4nc(N6C(=O)OC[C@H]6C(F)F)cn4CCO5)CC3)C2)nc1 [Compound 288] | – | – | < 0.05 | < 0.05 | –
21 | CC(C)=CC(=O)CCC(=O)N1CCN(Cc2cc3nc(-c4cccc5[nH]ncc45)nc(N4CCOCC4)c3s2)CC1 [CNX1351] | – | – | – | – | IC50 ([1]; 144 h, numeric values, read-out: Inhibitory activity against MCF-7 cells (IC50)): 0.29 µM; IC50 ([2]; HCC1954 cells, 144 h, CellTiter-Lumi, numeric values, read-out: Inhibitory activity against HCC1954 cells (IC50)): 1.19 µM
22 | N#CC(=CC1CC1)C(=O)Nc1ccc(N2CC(N3CCN(c4ccc5c(c4)-c4nc(N6C(=O)OC[C@H]6C(F)F)cn4CCO5)CC3)C2)cc1 [Compound 278] | 0.016 | 0.042 | – | – | –

More lines, main results first:

Row | IC50 [1, 3] [µM] | IC50 [2, 4] [µM] | IC50 [1, 5] [µM] | IC50 [2, 6] [µM] | SMILES | also measured
23 | 0.037 | 0.318 | – | – | C=CC(=O)N1CC(N2CC[C@@H](CN3CCN(c4ccc5c(c4)-c4nc(N6C(=O)OC[C@H]6C(F)F)cn4CCO5)CC3)C2)C1 [Compound 87] | –
24 | – | – | < 0.05 | < 0.05 | CC(=O)NC(C)(C)C=C(C#N)C(=O)Nc1ccc(N2CC(N3CCN(c4ccc5c(c4)-c4nc(N6C(=O)OC[C@H]6C(F)F)cn4CCO5)CC3)C2)c(F)c1 [Compound 347] | –
25 | – | – | < 0.05 | < 0.05 | CC(C)(C=C(C#N)C(=O)Nc1ccc(N2CC(N3CCN(c4ccc5c(c4)-c4nc(N6C(=O)OC[C@H]6C(F)F)cn4CCO5)CC3)C2)nc1)N1CC2(COC2)C1 [Compound 246] | –
26 | – | – | < 0.05 | < 0.05 | CC(C)(C=C(C#N)C(=O)Nc1ccc(N2CC(N3CCN(c4ccc5c(c4)-c4nc(N6C(=O)OC[C@H]6C(F)F)cn4CCO5)CC3)C2)cc1)N1CC2(CCOCC2)C1 [Compound 313] | –
27 | 0.0003 | 0.004 | – | – | C=CC(=O)Nc1ccc(N2CC(N3CCN(c4ccc5c(c4)-c4nc(N6C(=O)OC[C@H]6C(F)F)cn4CCO5)CC3)C2)cc1OC [Compound 173] | –
28 | 0.0004 | 0.007 | – | – | C=CC(=O)Nc1ccc(N2CC(N3CCN(c4ccc5c(c4)-c4nc(N6C(=O)OC[C@H]6C(F)F)cn4CCO5)CC3)C2)nc1 [Compound 122] | –
29 | – | – | < 0.05 | < 0.05 | CC1(C=C(C#N)C(=O)Nc2ccc(N3CC(N4CCN(c5ccc6c(c5)-c5nc(N7C(=O)OC[C@H]7C(F)F)cn5CCO6)CC4)C3)c(F)c2)COC1 [Compound 233] | –
30 | – | – | < 0.05 | < 0.05 | CC(=O)OCNC(C)(C)C=C(C#N)C(=O)Nc1ccc(N2CC(N3CCN(c4ccc5c(c4)-c4nc(N6C(=O)OC[C@H]6C(F)F)cn4CCO5)CC3)C2)cc1 [Compound 328] | –
31 | 0.033 | 0.314 | – | – | C=CC(=O)N1CC(CN2CCC(N3CCN(c4ccc5c(c4)-c4nc(N6C(=O)OC[C@H]6C(F)F)cn4CCO5)CC3)CC2)C1 [Compound 64] | –
32 | – | – | < 0.05 | < 0.05 | N#CC(=CC1(N)CC1)C(=O)Nc1ccc(N2CC(N3CCN(c4ccc5c(c4)-c4nc(N6C(=O)OC[C@H]6C(F)F)cn4CCO5)CC3)C2)cc1 [Compound 213] | –
33 | 0.39 | > 1 | – | – | C=CC(=O)Nc1ccc(N2CC(CN3CC4(C3)CN(c3ccc5c(c3)-c3nc(N6C(=O)OC[C@H]6C(F)F)cn3CCO5)C4)C2)cc1 [Compound 25] | –
34 | 0.0009 | 0.0053 | – | – | C=CC(=O)Nc1ccc(N2CC(N3CCN(c4ccc5c(c4)-c4nc(N6C(=O)OC[C@H]6C(F)F)cn4CCO5)CC3)C2)c(F)c1 [Compound 123] | –
35 | – | – | < 0.05 | < 0.05 | Cc1nc(-c2cn3c(n2)-c2cc(N4CCN(C5CN(c6ccc(NC(=O)C(C#N)=CC(C)(C)C)cc6F)C5)CC4)ccc2OCC3)n(C(C)C)n1 [Compound 367] | –
36 | 0.0002 | 0.01 | – | – | CN(C)C/C=C/C(=O)Nc1ccc(N2CC(N3CCN(c4ccc5c(c4)-c4nc(N6C(=O)OC[C@H]6C(F)F)cn4CCO5)CC3)C2)cn1 [Compound 148] | –
37 | – | – | < 0.05 | < 0.05 | CC1(C=C(C#N)C(=O)Nc2ccc(N3CC(N4CCN(c5ccc6c(c5)-c5nc(N7C(=O)OC[C@H]7C(F)F)cn5CCO6)CC4)C3)cc2)CCC1 [Compound 390] | –
38 | – | – | < 0.05 | < 0.05 | N#CC(=CC1(N)CCC1)C(=O)Nc1ccc(N2CC(N3CCN(c4ccc5c(c4)-c4nc(N6C(=O)OC[C@H]6C(F)F)cn4CCO5)CC3)C2)cc1 [Compound 391] | –
39 | – | – | < 0.05 | < 0.05 | CC(C)(C=C(C#N)C(=O)Nc1ccc(N2CC(N3CCN(c4ccc5c(c4)-c4nc(N6C(=O)OC[C@H]6C(F)F)cn4CCO5)CC3)C2)c(F)c1)N1CCOCC1 [Compound 222] | –
